biological target: T1, chimeric human H3 receptor (Homo sapiens, UniProt Q9Y5N1); test: Chimeric human H3 receptor screening GTP binding assay (inhibition of histamine-stimulated GTP-gamma35S binding, Example 8); type: biochemical; conditions: 1 h; assay described in Example 8; symbol "!" in column headed Ki; read-out: Ki ("!": percent inhibition of agonist-induced GTP-gammaS binding to H3)
T1 construct: rat Galpha-i2 (Gnai2, rat); made in house; host or cells: Sf9 insect cells (baculovirus); P2 membranes
T1 sequence (Q9Y5N1 with tags, fused parts or gaps): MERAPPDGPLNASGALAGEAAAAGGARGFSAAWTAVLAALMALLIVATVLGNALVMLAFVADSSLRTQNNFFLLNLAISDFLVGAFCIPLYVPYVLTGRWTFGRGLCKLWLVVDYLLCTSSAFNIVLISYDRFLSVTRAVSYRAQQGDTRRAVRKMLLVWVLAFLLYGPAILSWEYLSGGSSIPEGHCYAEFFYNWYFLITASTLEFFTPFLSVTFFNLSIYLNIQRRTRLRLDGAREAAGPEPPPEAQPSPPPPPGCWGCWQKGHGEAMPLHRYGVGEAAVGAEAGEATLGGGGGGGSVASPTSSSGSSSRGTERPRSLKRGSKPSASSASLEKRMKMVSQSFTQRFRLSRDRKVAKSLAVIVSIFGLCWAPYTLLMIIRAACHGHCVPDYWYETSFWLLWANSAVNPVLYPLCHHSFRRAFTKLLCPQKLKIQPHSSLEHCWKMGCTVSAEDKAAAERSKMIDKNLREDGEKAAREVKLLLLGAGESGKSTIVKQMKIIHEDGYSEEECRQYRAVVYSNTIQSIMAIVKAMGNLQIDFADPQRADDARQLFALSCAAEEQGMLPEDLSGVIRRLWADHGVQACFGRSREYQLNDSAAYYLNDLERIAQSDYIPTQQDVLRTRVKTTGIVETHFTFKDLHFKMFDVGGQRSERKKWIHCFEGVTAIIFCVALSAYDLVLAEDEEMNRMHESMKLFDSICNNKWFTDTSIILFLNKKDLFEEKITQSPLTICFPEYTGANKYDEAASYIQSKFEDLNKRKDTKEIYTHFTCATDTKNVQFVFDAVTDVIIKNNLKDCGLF
How it was run: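 Compound tested at 4 μM against 1 μM histamine stimulation; 125 pM GTP-gamma35S binding measured by filtration and scintillation after 60 min at room temperature. Membranes from Sf9 cells expressing chimeric human H3 plus G-protein subunits, in Tris pH 7.4/NaCl/MgCl2/GDP buffer; values are % inhibition after nonspecific subtraction.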

Row | Compound | inhibition at 4 µM [%]
1 | O=C(Cc1ccccc1F)N1CCc2cnc(N3CCN(C4CCC4)CC3)nc2CC1 [Compound 517, 2-(4-cyclobutylpiperazin-1-yl)-7-[(2-fluorophenyl)acetyl]-6,7,8,9-tetrahydro-5H-pyrimido[4,5-d]azepine] | ≥ 90
2 | O=C(Cc1ccc(-c2ccccc2)cc1)N1CCc2cnc(N3CCN(C4CCC4)CC3)nc2CC1 [Compound 518, 7-(biphenyl-4-ylacetyl)-2-(4-cyclobutylpiperazin-1-yl)-6,7,8,9-tetrahydro-5H-pyrimido[4,5-d]azepine] | ≥ 90
3 | CSc1ccc(CC(=O)N2CCc3cnc(N4CCN(C5CCC5)CC4)nc3CC2)cc1 [Compound 519, 2-(4-cyclobutylpiperazin-1-yl)-7-{[4-(methylthio)phenyl]acetyl}-6,7,8,9-tetrahydro-5H-pyrimido[4,5-d]azepine] | ≥ 90
4 | O=C(Cc1ccc(OCc2ccccc2)cc1)N1CCc2cnc(N3CCN(C4CCC4)CC3)nc2CC1 [Compound 520, 7-{[4-(benzyloxy)phenyl]acetyl}-2-(4-cyclobutylpiperazin-1-yl)-6,7,8,9-tetrahydro-5H-pyrimido[4,5-d]azepine] | ≥ 90
5 | CC(C)c1ccc(CC(=O)N2CCc3cnc(N4CCN(C5CCC5)CC4)nc3CC2)cc1 [Compound 521, 2-(4-cyclobutylpiperazin-1-yl)-7-[(4-isopropylphenyl)acetyl]-6,7,8,9-tetrahydro-5H-pyrimido[4,5-d]azepine] | ≥ 90
6 | O=C(Cc1ccc2ccccc2c1)N1CCc2cnc(N3CCN(C4CCC4)CC3)nc2CC1 [Compound 522, 2-(4-cyclobutylpiperazin-1-yl)-7-(2-naphthylacetyl)-6,7,8,9-tetrahydro-5H-pyrimido[4,5-d]azepine] | ≥ 90
7 | Cc1onc(-c2c(Cl)cccc2Cl)c1C(=O)N1CCc2cnc(N3CCN(C4CCC4)CC3)nc2CC1 [Compound 523, 2-(4-cyclobutylpiperazin-1-yl)-7-{[3-(2,6-dichlorophenyl)-5-methylisoxazol-4-yl]carbonyl}-6,7,8,9-tetrahydro-5H-pyrimido[4,5-d]azepine] | ≥ 90
8 | Cc1nc(-c2ccc(C(F)(F)F)cc2)sc1C(=O)N1CCc2cnc(N3CCN(C4CCC4)CC3)nc2CC1 [Compound 524, 2-(4-cyclobutylpiperazin-1-yl)-7-({4-methyl-2-[4-(trifluoromethyl)phenyl]-1,3-thiazol-5-yl}carbonyl)-6,7,8,9-tetrahydro-5H-pyrimido[4,5-d]azepine] | ≥ 90
9 | Cc1nc(C)c(C(=O)N2CCc3cnc(N4CCN(C5CCC5)CC4)nc3CC2)s1 [Compound 525, 2-(4-cyclobutylpiperazin-1-yl)-7-[(2,4-dimethyl-1,3-thiazol-5-yl)carbonyl]-6,7,8,9-tetrahydro-5H-pyrimido[4,5-d]azepine] | ≥ 90
10 | O=C(c1nsc(Cl)c1Cl)N1CCc2cnc(N3CCN(C4CCC4)CC3)nc2CC1 [Compound 526, 2-(4-cyclobutylpiperazin-1-yl)-7-[(4,5-dichloroisothiazol-3-yl)carbonyl]-6,7,8,9-tetrahydro-5H-pyrimido[4,5-d]azepine] | ≥ 90
11 | O=C(c1csnn1)N1CCc2cnc(N3CCN(C4CCC4)CC3)nc2CC1 [Compound 527, 2-(4-cyclobutylpiperazin-1-yl)-7-(1,2,3-thiadiazol-4-ylcarbonyl)-6,7,8,9-tetrahydro-5H-pyrimido[4,5-d]azepine] | ≥ 90
12 | Cc1nnsc1C(=O)N1CCc2cnc(N3CCN(C4CCC4)CC3)nc2CC1 [Compound 528, 2-(4-cyclobutylpiperazin-1-yl)-7-[(4-methyl-1,2,3-thiadiazol-5-yl)carbonyl]-6,7,8,9-tetrahydro-5H-pyrimido[4,5-d]azepine] | ≥ 90
13 | O=C(c1csc(-c2cccnc2)n1)N1CCc2cnc(N3CCN(C4CCC4)CC3)nc2CC1 [Compound 529, 2-(4-cyclobutylpiperazin-1-yl)-7-[(2-pyridin-3-yl-1,3-thiazol-4-yl)carbonyl]-6,7,8,9-tetrahydro-5H-pyrimido[4,5-d]azepine] | ≥ 90
14 | O=C(c1csc(-c2ccncc2)n1)N1CCc2cnc(N3CCN(C4CCC4)CC3)nc2CC1 [Compound 530, 2-(4-cyclobutylpiperazin-1-yl)-7-[(2-pyridin-4-yl-1,3-thiazol-4-yl)carbonyl]-6,7,8,9-tetrahydro-5H-pyrimido[4,5-d]azepine] | ≥ 90
15 | Nc1ccccc1C(=O)N1CCc2cnc(N3CCN(C4CCC4)CC3)nc2CC1 [Compound 531, 2-{[2-(4-cyclobutylpiperazin-1-yl)-5,6,8,9-tetrahydro-7H-pyrimido[4,5-d]azepin-7-yl]carbonyl}aniline] | ≥ 90
16 | Cc1ccc(C(=O)N2CCc3cnc(N4CCN(C5CCC5)CC4)nc3CC2)cc1N [Compound 532, 5-{[2-(4-cyclobutylpiperazin-1-yl)-5,6,8,9-tetrahydro-7H-pyrimido[4,5-d]azepin-7-yl]carbonyl}-2-methylaniline] | ≥ 90
17 | Nc1ccc(C(=O)N2CCc3cnc(N4CCN(C5CCC5)CC4)nc3CC2)cc1 [Compound 533, 4-{[2-(4-cyclobutylpiperazin-1-yl)-5,6,8,9-tetrahydro-7H-pyrimido[4,5-d]azepin-7-yl]carbonyl}aniline] | ≥ 90
18 | CNc1ccccc1C(=O)N1CCc2cnc(N3CCN(C4CCC4)CC3)nc2CC1 [Compound 534, 2-{[2-(4-cyclobutylpiperazin-1-yl)-5,6,8,9-tetrahydro-7H-pyrimido[4,5-d]azepin-7-yl]carbonyl}-N-methylaniline] | ≥ 90
19 | CNc1ccc(C(=O)N2CCc3cnc(N4CCN(C5CCC5)CC4)nc3CC2)cc1 [Compound 535, 4-{[2-(4-cyclobutylpiperazin-1-yl)-5,6,8,9-tetrahydro-7H-pyrimido[4,5-d]azepin-7-yl]carbonyl}-N-methylaniline] | ≥ 90
20 | Nc1ccc(Cl)cc1C(=O)N1CCc2cnc(N3CCN(C4CCC4)CC3)nc2CC1 [Compound 536, 4-chloro-2-{[2-(4-cyclobutylpiperazin-1-yl)-5,6,8,9-tetrahydro-7H-pyrimido[4,5-d]azepin-7-yl]carbonyl}aniline] | ≥ 90
21 | Cc1cccc(C(=O)N2CCc3cnc(N4CCN(C5CCC5)CC4)nc3CC2)c1N [Compound 537, 2-{[2-(4-cyclobutylpiperazin-1-yl)-5,6,8,9-tetrahydro-7H-pyrimido[4,5-d]azepin-7-yl]carbonyl}-6-methylaniline] | ≥ 90
22 | Cc1c(N)cccc1C(=O)N1CCc2cnc(N3CCN(C4CCC4)CC3)nc2CC1 [Compound 538, 3-{[2-(4-cyclobutylpiperazin-1-yl)-5,6,8,9-tetrahydro-7H-pyrimido[4,5-d]azepin-7-yl]carbonyl}-2-methylaniline] | ≥ 90
23 | Cc1ccc(N)c(C(=O)N2CCc3cnc(N4CCN(C5CCC5)CC4)nc3CC2)c1 [Compound 539, 2-{[2-(4-cyclobutylpiperazin-1-yl)-5,6,8,9-tetrahydro-7H-pyrimido[4,5-d]azepin-7-yl]carbonyl}-4-methylaniline] | ≥ 90
24 | Nc1cc(Cl)ccc1C(=O)N1CCc2cnc(N3CCN(C4CCC4)CC3)nc2CC1 [Compound 540, 5-chloro-2-{[2-(4-cyclobutylpiperazin-1-yl)-5,6,8,9-tetrahydro-7H-pyrimido[4,5-d]azepin-7-yl]carbonyl}aniline] | ≥ 90

— patent US20080051387A1, “TETRAHYDROPYRIDO[3,4-D]PYRIMIDINES AND RELATED ANALOGUES” (priority 2006, published 2008)
